Assay results reported in ChEMBL document CHEMBL1201862, “PubChem BioAssay data set” (2004).
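Test compounds were applied to cells in 96-well plates for 48 hours at 5 doses. GI50: concentration for 50% inhibition of growth.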 Active and inactive are the calls of the source. No stated cut-off is given here; in the data, active = GI50 up to about 1.1 µM and inactive = higher.

Experiments:
Test in all cases: inhibition of tumour cell growth, NCI panel, 48 h
HOP-92 = test system: HOP-92
MDA-MB-231 = test system: MDA-MB-231
CAKI-1 = test system: CAKI-1
MOLT-4 = test system: MOLT-4
EKVX = test system: EKVX
MDA-MB-435 = test system: MDA-MB-435
MDA-N = test system: MDA-N
PC-3 = test system: PC-3
K562 = test system: K562
SF-539 = test system: SF-539
Malme-3M = test system: Malme-3M
BT-549 = test system: BT-549
786-0 = test system: 786-0
A549 = test system: A549
U-251 = test system: U-251
A498 = test system: A498
OVCAR-3 = test system: OVCAR-3
SK-MEL-28 = test system: SK-MEL-28
NCI-H226 = test system: NCI-H226
NCI-H522 = test system: NCI-H522

Structure (SMILES) | GI50 (HOP-92) | GI50 (MDA-MB-231) | GI50 (CAKI-1) | GI50 (MOLT-4) | GI50 (EKVX) | GI50 (MDA-MB-435) | GI50 (MDA-N) | GI50 (PC-3) | GI50 (K562) | GI50 (SF-539) | GI50 (Malme-3M) | GI50 (BT-549) | GI50 (786-0) | GI50 (A549) | GI50 (U-251) | GI50 (A498) | GI50 (OVCAR-3) | GI50 (SK-MEL-28) | GI50 (NCI-H226) | GI50 (NCI-H522)
Cc1c(O)c(=O)ccn1CCc1c[nH]c2ccccc12 | 0.483 µM (active) | 0.718 µM (active) | 1.21 µM (inactive) | 8.2 µM (inactive) | 6.31 µM (inactive) | 17.2 µM (inactive) | 23 µM (inactive) | 28.4 µM (inactive) | 14.4 µM (inactive) | 19.7 µM (inactive) | 18.2 µM (inactive) | 20.7 µM (inactive) | 2.55 µM (inactive) | 9.35 µM (inactive) | 6.55 µM (inactive) |  |  |  |  | 
Cc1nnc2n1-c1ccccc1C(=S)N1CSCC21 (stereo not given) |  | > 100 µM (inactive) | > 100 µM (inactive) | > 100 µM (inactive) | > 100 µM (inactive) | > 100 µM (inactive) | > 100 µM (inactive) | > 100 µM (inactive) | > 100 µM (inactive) |  | > 100 µM (inactive) | > 100 µM (inactive) | > 100 µM (inactive) | > 100 µM (inactive) | > 100 µM (inactive) | > 100 µM (inactive) | > 100 µM (inactive) | > 100 µM (inactive) | > 100 µM (inactive) | > 100 µM (inactive)
O=C1C=CC2(C=C1)O[C@H](COCc1ccccc1)[C@@H](COCc1ccccc1)O2 | 1.01 µM (active) | 3.65 µM (inactive) | 2.24 µM (inactive) | 0.371 µM (active) | 1.59 µM (inactive) | 2.27 µM (inactive) | 1.52 µM (inactive) | 2.13 µM (inactive) | 2.25 µM (inactive) | 1.97 µM (inactive) | 2.54 µM (inactive) | 0.792 µM (active) | 0.627 µM (active) | 15.3 µM (inactive) | 1.92 µM (inactive) | 19.9 µM (inactive) | 2.37 µM (inactive) | 1.8 µM (inactive) | 1.82 µM (inactive) | 
N#CC(c1cc(Cl)ncn1)c1nc2cc(C(F)(F)F)ccc2s1 (stereo not given) | 2.14 µM (inactive) | 4.31 µM (inactive) | 8.95 µM (inactive) | 4.74 µM (inactive) | 14.5 µM (inactive) | 4.31 µM (inactive) | 3.42 µM (inactive) |  | 6.92 µM (inactive) | 4.63 µM (inactive) | 4.14 µM (inactive) | 3.09 µM (inactive) | 3.3 µM (inactive) | 6.01 µM (inactive) | 3.08 µM (inactive) | 5.85 µM (inactive) | 3.32 µM (inactive) | 13 µM (inactive) | 15.1 µM (inactive) | 1.24 µM (inactive)
O=C(O)C/N=C(\C(=N\CC(=O)O)c1ccccc1)c1ccccc1 |  | > 100 µM (inactive) | > 100 µM (inactive) | > 100 µM (inactive) | > 100 µM (inactive) | > 100 µM (inactive) | > 100 µM (inactive) | > 100 µM (inactive) | > 100 µM (inactive) |  | > 100 µM (inactive) | > 100 µM (inactive) | > 100 µM (inactive) | > 100 µM (inactive) | > 100 µM (inactive) | > 100 µM (inactive) | > 100 µM (inactive) | > 100 µM (inactive) | > 100 µM (inactive) | > 100 µM (inactive)
OCCNc1ncnc2c1ncn2C1OC(CO)C(O)C1O (stereo not given) | 51.4 µM (inactive) | 25.5 µM (inactive) | > 100 µM (inactive) | 0.224 µM (active) | > 100 µM (inactive) | > 100 µM (inactive) | > 100 µM (inactive) | 47.4 µM (inactive) |  | > 100 µM (inactive) | > 100 µM (inactive) | > 100 µM (inactive) | > 100 µM (inactive) | > 100 µM (inactive) | > 100 µM (inactive) | 57.7 µM (inactive) | 52.1 µM (inactive) | > 100 µM (inactive) |  | 47.3 µM (inactive)
CCOC(=O)c1[nH]c(Br)c(-c2ccc(OC)c(OC)c2)c1Br | 7.46 µM (inactive) | 0.321 µM (active) |  | 0.0262 µM (active) | 4.12 µM (inactive) | 0.0091 µM (active) | 0.00567 µM (active) | 0.0356 µM (active) | 0.0121 µM (active) |  | 1.71 µM (inactive) | 0.054 µM (active) | 0.0334 µM (active) | 0.287 µM (active) | 0.0311 µM (active) | 0.0187 µM (active) | 0.0163 µM (active) | 0.0562 µM (active) | 0.0381 µM (active) | 0.00991 µM (active)
